Columns and labels:
[1] = test system: PP1/PP2A-chimera (CRHM2); assay: Inhibition of recombinant PP1/PP2A chimera; format: biochemical, human PP1 / bovine PP2A; settings: enzyme printed as rPP2Ac-1
Experimental: FIG. 6: Sequence of a PP1/PP2A chimera. To characterize the fostriecin binding site, the N-terminal region of PP1 was ligated to the C-terminal region of PP2A (in bold) to produce a PP1/PP2A-chimera (CRHM2). Previous studies indicate that the okadaic acid binding domain is contained in the C-terminal region of PP2A that was incorporated into CRHM2.
FIG. 7: Effect of fostriecin and okadaic acid on the activity of recombinant CRHM2. CRHM2 activity was assayed in the presence of the indicated amount of fostriecin (FIG. 7A) or okadaic acid (FIG. 7B). […] Assays were conducted as described in FIG. 5. Each point represents the mean ± SE (n>6).
(§1) PP1, an enzyme highly homologous to PP2A, could be expressed in a stable manner and in relatively large amounts. Thus, human PP1 was cloned and subcloned into a bacterial expression vector as was done for PP2A. […] To create a hybrid enzyme (a PP1/PP2A chimera) that could be expressed stably like rPP1 but would bind okadaic acid with high affinity like PP2A, a number of mutant forms of PP1 and PP2A were constructed. Then, through mutational analysis, the okadaic acid binding domain of PP2A was identified. The okadaic acid binding domain from PP2A was cloned behind the amino terminal domain of PP1. The hybrid, referred to as CRHM-2, was subcloned into an expression vector. Restriction analysis of CRHM-2 confirmed the identity of the construct.
In these studies, the bacterial expressed PP1/PP2A hybrid enzyme was produced by growing appropriate strains of transformed E. coli at 18° C. for 48 hours in LB-media containing 50 μg/ml ampicillin, 1 mM MnCl2, and 50 μM IPTG. The bacteria were lysed with a French Press, and after centrifugation at 15,000×g for 45 min, the phosphatase was partially purified via ion-exchange [High Q (BioRad) and MonoQ (Pharmacia)] and affinity [Heparin-Sepharose (Pharmacia)] chromatography. The sensitivity of the chimera to fostriecin was determined employing the same protein phosphatase assay employed with endogenous PP1 or PP2A, with the addition of MnCl2 (1 mM) to the assay buffer.

[2] = test system: rPP1; assay: Inhibition of recombinant PP1; format: biochemical; settings: bacterially expressed human PP1
Excerpt: as §1

## C=C1[C@@H](O)[C@@H]2O[C@]3(CC[C@H](/C=C/[C@@H](C)[C@@H]4CC(C)=C[C@@]5(O[C@H](C[C@@](C)(O)C(=O)O)CC[C@H]5O)O4)O3)CC[C@H]2O[C@@H]1[C@@H](O)C[C@H](C)[C@H]1O[C@@]2(CCCCO2)CC[C@H]1C [okadaic acid, reference compound]
[1]
  binding affinity to the recombinant hybrid enzyme: comparable affinity to PP2A
[2]
  sensitivity of rPP1 to inhibition, relative to PP2A: less sensitive to inhibition by okadaic acid than PP2A

— patent US5914242A, “Method for diminishing myocardial infarction using protein phosphatase inhibitors” (priority 1997, dated 1999)
